Experimental findings from patent EP4800013A1, “PARG INHIBITOR” (Shanghai Qilu Pharmaceutical Research and Development …, priority 2023, dated 2025) are described below.

One experiment has as its target T1, PARG (Homo sapiens, UniProt Q86W56).
T1 construct: made in house
Nature of the experiment: Enzymatic inhibitory activity against PARG, HTRF assay. Format: biochemical. To be noted: HTRF; PARylated PARP1 protein as substrate; 60 minutes at room temperature; read-out: IC50 against PARG enzyme. Summed up: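 Purified PARG pre-incubated with compounds (top 10 µM, 3- to 5-fold dilutions, duplicates) 15 min at room temperature, then PARylated PARP1 substrate added for 60 min in Tris pH 7.4 buffer with DTT, EDTA/EGTA, KCl. HTRF (His-Tb/SA-XL665) read-out; IC50 by four-parameter logistic fit, normalised to DMSO and control-inhibitor wells.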

The next experiment concerns KURAMOCHI cells. Put plainly: Inhibition of proliferation of KURAMOCHI cells (CellTiter-Glo, intracellular ATP). Format: cell-based. To be noted: 168 h, incubated for 7 days, read-out: IC50 against KURAMOCHI cells. A digest of the protocol:
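KURAMOCHI cells seeded at 4000/well, incubated overnight, then treated with 9-point 1:4 compound series from 10 µM (0.5% DMSO) for 7 days at 37°C, 5% CO2. Viability read by CellTiter-Glo luminescence; inhibition normalised to medium-only (100%) and DMSO (0%) controls, IC50 from variable-slope four-parameter fit.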

pIC50: −log10 of the molar value.

In general, pIC50 refers to the negative decadic logarithm of the IC50, by convention in mol/L.

T1 sequence (Q86W56 whole entry): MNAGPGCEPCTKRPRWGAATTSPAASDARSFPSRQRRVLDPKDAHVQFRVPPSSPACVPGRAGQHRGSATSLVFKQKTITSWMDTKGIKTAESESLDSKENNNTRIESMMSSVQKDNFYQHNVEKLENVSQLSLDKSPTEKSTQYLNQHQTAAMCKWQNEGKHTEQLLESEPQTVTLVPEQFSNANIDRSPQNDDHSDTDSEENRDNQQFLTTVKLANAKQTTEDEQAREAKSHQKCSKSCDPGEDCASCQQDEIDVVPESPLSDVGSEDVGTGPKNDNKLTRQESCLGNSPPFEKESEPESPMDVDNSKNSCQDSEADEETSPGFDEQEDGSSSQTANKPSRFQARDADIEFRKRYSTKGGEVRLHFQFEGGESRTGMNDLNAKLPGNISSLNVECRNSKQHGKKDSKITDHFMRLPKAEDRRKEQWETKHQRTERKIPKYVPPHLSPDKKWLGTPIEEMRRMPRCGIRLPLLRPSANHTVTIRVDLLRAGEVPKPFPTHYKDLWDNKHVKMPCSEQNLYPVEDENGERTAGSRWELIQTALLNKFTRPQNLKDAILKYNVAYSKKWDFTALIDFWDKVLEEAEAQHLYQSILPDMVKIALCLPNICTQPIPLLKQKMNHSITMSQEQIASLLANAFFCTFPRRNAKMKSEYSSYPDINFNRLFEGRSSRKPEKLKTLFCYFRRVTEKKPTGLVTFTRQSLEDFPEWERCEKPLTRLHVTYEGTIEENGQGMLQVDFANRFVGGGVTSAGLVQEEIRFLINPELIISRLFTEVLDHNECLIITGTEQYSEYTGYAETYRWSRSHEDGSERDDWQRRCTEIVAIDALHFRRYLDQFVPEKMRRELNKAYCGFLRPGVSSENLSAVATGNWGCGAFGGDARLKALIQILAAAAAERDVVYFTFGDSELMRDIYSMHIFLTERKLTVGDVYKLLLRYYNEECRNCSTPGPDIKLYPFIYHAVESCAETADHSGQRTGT

`C=CCn1c(=O)n(-c2nnc(C(F)F)s2)c2cc(S(=O)(=O)NC3(C#N)CC3)cc(N3CCN(C(=O)C4(C)CCCO4)CC3)c21` (centres unmarked) [Compound 076J]: the pIC50 at PARG was 8.15; in the experiment on KURAMOCHI cells, 8.05.
Turning to `C[C@H]1CN(c2cc(S(=O)(=O)NC3(C#N)CC3)cc3c2nc(OC2CC2)n3-c2nnc(C(F)F)s2)C[C@H](C)N1` [Compound 077A], the values for the pIC50 at PARG and in the experiment on KURAMOCHI cells were 7.98 and 7.96, respectively.
The like results for `C[C@H]1CN(c2cc(S(=O)(=O)NC3(C)CC3)cc3c2nc(C2CCCO2)n3-c2nnc(C(F)F)s2)C[C@H](C)N1` (some centres unmarked) [Compound 077B] were, in that order, 8.47 and 8.15.
Consider `C[C@H]1CN(c2cc(S(=O)(=O)NC3(C)CC3)cc3c2nc(OC2CC2)n3-c2nnc(C(F)F)s2)C[C@H](C)N1` [Compound 077F], for which the results for the negative logarithm of the IC50 (pIC50) on PARG and in the experiment with KURAMOCHI cells were 8.04 and 8.05, respectively.
For `CC(C)Oc1nc2c(N3C[C@H](C)N[C@@H](C)C3)cc(S(=O)(=O)NC3(C)CC3)cc2n1-c1nnc(C(F)F)s1` [Compound 077G], in that order: 8.80 and 8.70.
For `CC(C)Oc1nc2c(N3C[C@H](C)N[C@@H](C)C3)cc(S(=O)(=O)NC3(C#N)CC3)cc2n1-c1nnc(C(F)F)s1` [Compound 077H], in that order: 8.52 and 8.30.
For `C[C@H]1CN(c2cc(S(=O)(=O)NC3(C)CC3)cc3c2nc(C2COCCO2)n3-c2nnc(C(F)F)s2)C[C@H](C)N1` (some centres unmarked) [Compound 077N], in that order: 8.47 and 8.10.
Turning to `COCc1nc2c(N3C[C@H](C)N[C@@H](C)C3)cc(S(=O)(=O)NC3(C)CC3)cc2n1-c1nnc(C(F)F)s1` [Compound 077T], the results for the negative logarithm of the IC50 (pIC50) at PARG and in the experiment with KURAMOCHI cells were 7.56 and 7.46, respectively.
For `C[C@H]1CN(c2cc(S(=O)(=O)NC3(C)CC3)cc3c2nc(N2CCOCC2)n3-c2nnc(C(F)F)s2)C[C@H](C)N1` [Compound 077V], in that order: 7.66 and 7.43.
For `C[C@H]1CN(c2cc(S(=O)(=O)NC3(C)CC3)cc3c2nc(C2CCCCO2)n3-c2nnc(C(F)F)s2)C[C@H](C)N1` (some centres unmarked) [Compound 077X], in that order: 7.67 and 7.80.
`C[C@H]1CN(c2cc(S(=O)(=O)NC3(C)CC3)cc3c2nc(C2CC(F)(F)CO2)n3-c2nnc(C(F)F)s2)C[C@H](C)N1` (some centres unmarked) [Compound 079J]: the values for the pIC50 at PARG and with KURAMOCHI cells were 8.74 and 8.40, respectively.
For `C[C@H]1CN(c2cc(S(=O)(=O)NC3(C)CC3)cc3c2nc(C2CC4(CC4)CO2)n3-c2nnc(C(F)F)s2)C[C@H](C)N1` (some centres unmarked) [Compound 079M], in that order: 8.42 and 7.82.
The like results for `C[C@H]1CN(c2cc(S(=O)(=O)NC3(C)CC3)cn3c(-c4nnc(C(F)F)s4)c([C@H]4CCCO4)nc23)C[C@H](C)N1` [Compound 080B1] were, in that order, 8.66 and 8.40.
For `C[C@H]1CN(c2cc(S(=O)(=O)NC3(C)CC3)cn3c(-c4nnc(C(F)F)s4)c(C4CCCO4)nc23)C[C@H](C)N1` (some centres unmarked) [Compound 080B], in that order: 9.30 and 9.00.
With `C[C@H]1CN(c2cc(S(=O)(=O)NC3(C)CC3)cn3c(-c4nnc(C(F)F)s4)cnc23)C[C@H](C)N1` [Compound 080J], the pIC50 at PARG is 8.62; with KURAMOCHI cells, 8.30.
Turning to `C[C@H]1CN(c2cc(S(=O)(=O)NC3(C)CC3)cn3c(-c4nnc(C(F)F)s4)c(Cl)nc23)C[C@H](C)N1` [Compound 080K], the pIC50 is 8.77 at PARG and 8.40 with KURAMOCHI cells.
Turning to `C[C@H]1CN(c2cc(S(=O)(=O)NC3(C)CC3)cc3c(-c4nnc(C(F)F)s4)c([C@H]4CCCO4)nn23)C[C@H](C)N1` [Compound 083A1], the pIC50 at PARG is 7.84; in the experiment with KURAMOCHI cells, 7.60.
In the case of `C[C@H]1CN(c2cc(S(=O)(=O)NC3(C)CC3)cc3c(-c4nnc(C(F)F)s4)c([C@@H]4CCCO4)nn23)C[C@H](C)N1` [Compound 083A2], the pIC50 was 9.00 on PARG and 8.52 in the experiment on KURAMOCHI cells.
For `C[C@H]1CN(c2cc(S(=O)(=O)NC3(C)CC3)cc3c(-c4nnc(C(F)F)s4)c(C4CCCO4)nn23)C[C@H](C)N1` (some centres unmarked) [Compound 083A], in that order: 8.68 and 8.40.
`COC(C)(C)c1nc2n(-c3nnc(C(F)F)s3)c3cc(S(=O)(=O)NC4(C)CC4)cc(N4C[C@H](C)N[C@@H](C)C4)c3n2n1` [Compound 084H]: the pIC50 at PARG was 9.15; in the experiment on KURAMOCHI cells, 8.52.
The like results for `C[C@H]1CN(c2cc(S(=O)(=O)NC3(C)CC3)cc3c2n2nc(C(=O)NC4CC4)nc2n3-c2nnc(C(F)F)s2)C[C@H](C)N1` [Compound 084J] were, in that order, 9.15 and 7.80.
The like results for `C[C@H]1CN(c2cc(S(=O)(=O)NC3(C)CC3)cc3c2n2nc(C(=O)NC4(C)CC4)nc2n3-c2nnc(C(F)F)s2)C[C@H](C)N1` [Compound 084K] were, in that order, 9.15 and 8.05.
The like results for `C[C@H]1CN(c2cc(S(=O)(=O)NC3(C)CC3)cc3c2n2nc(NC(=O)C4CC4)nc2n3-c2nnc(C(F)F)s2)C[C@H](C)N1` [Compound 084L] were, in that order, 8.96 and 7.54.
On to `C[C@H]1CN(c2cc(S(=O)(=O)NC3(C)CC3)cc3c2n2nc(N4CCCC4=O)nc2n3-c2nnc(C(F)F)s2)C[C@H](C)N1` [Compound 084M], for which the pIC50 at PARG was 9.10; in the experiment with KURAMOCHI cells, 8.05.
With `CC(C)C(=O)N1CCN(c2cc(S(=O)(=O)NC3(C)CC3)cc3c2[nH]c(=O)n3-c2nnc(C(F)F)s2)CC1` [Compound A002], the pIC50 on PARG is 7.79; in the experiment with KURAMOCHI cells, 7.07.
For `CC(C)C(=O)N1CCN(c2cc(S(=O)(=O)NC3(C)CC3)cc3c2n(C)c(=O)n3-c2nnc(C(F)F)s2)CC1` [Compound A003], in that order: 8.27 and 7.89.
The like results for `CN(C)C(=O)N1CCN(c2cc(S(=O)(=O)NC3(C)CC3)cc3c2[nH]c(=O)n3-c2nnc(C(F)F)s2)CC1` [Compound A004] were, in that order, 7.97 and 7.10.
Turning to `Cn1c(=O)n(-c2nnc(C(F)F)s2)c2cc(S(=O)(=O)NC3(C)CC3)cc(N3CCNCC3)c21` [Compound A005], the results for the pIC50 at PARG and in the experiment with KURAMOCHI cells were 7.52 and 7.35, respectively.
For `CN(C)C(=O)N1CCN(c2cc(S(=O)(=O)NC3(C)CC3)cc3c2n(C)c(=O)n3-c2nnc(C(F)F)s2)CC1` [Compound A006], in that order: 8.43 and 8.10.
The like results for `CN(C)C(=O)N1CCN(c2cc(S(=O)(=O)NC3(C#N)CC3)cc3c2n(C)c(=O)n3-c2nnc(C(F)F)s2)CC1` [Compound A013] were, in that order, 8.54 and 7.89.
The like results for `CC(C)C(=O)N1CCN(c2cc(S(=O)(=O)NC3(C#N)CC3)cc3c2n(C)c(=O)n3-c2nnc(C(F)F)s2)CC1` [Compound A014] were, in that order, 7.91 and 7.43.
For `CC(C)n1c(=O)n(-c2nnc(C(F)F)s2)c2cc(S(=O)(=O)NC3(C)CC3)cc(N3CCN(C(=O)N(C)C)CC3)c21` [Compound A018], the pIC50 was 7.47 on PARG and 8.15 in the experiment with KURAMOCHI cells.
For `CC(C)C(=O)N1CCN(c2cc(S(=O)(=O)NC3(C)CC3)cc3c2n(C(C)C)c(=O)n3-c2nnc(C(F)F)s2)CC1` [Compound A019], in that order: 7.74 and 7.80.
The like results for `CC(C)S(=O)(=O)N1CCN(c2cc(S(=O)(=O)NC3(C)CC3)cc3c2n(C)c(=O)n3-c2nnc(C(F)F)s2)CC1` [Compound A023] were, in that order, 8.82 and 8.40.
Turning to `Cn1c(=O)n(-c2nnc(C(F)F)s2)c2cc(S(=O)(=O)NC3(C)CC3)cc(N3CCN(C(=O)N4CCCC4)CC3)c21` [Compound A027], the figures for the pIC50 on PARG and in the experiment on KURAMOCHI cells were 8.42 and 8.30, respectively.
For `COC(=O)N1CCN(c2cc(S(=O)(=O)NC3(C)CC3)cc3c2n(C)c(=O)n3-c2nnc(C(F)F)s2)CC1` [Compound A028], in that order: 7.72 and 7.32.
For `Cn1c(=O)n(-c2nnc(C(F)F)s2)c2cc(S(=O)(=O)NC3(C)CC3)cc(N3CCN(C(=O)C(C)(C)F)CC3)c21` [Compound A029], in that order: 8.52 and 8.10.
The like results for `Cn1c(=O)n(-c2nnc(C(F)F)s2)c2cc(S(=O)(=O)NC3(C)CC3)cc(N3CCN(C(=O)C(C)(C)O)CC3)c21` [Compound A030] were, in that order, 7.74 and 8.00.
Regarding `Cn1c(=O)n(-c2nnc(C(F)F)s2)c2cc(S(=O)(=O)NC3(CF)CC3)cc(N3CCNCC3)c21` [Compound A031], the pIC50 on PARG was 7.45; in the experiment on KURAMOCHI cells it was 7.20.
For `CN(C)C(=O)N1CCN(c2cc(S(=O)(=O)NC3(CF)CC3)cc3c2n(C)c(=O)n3-c2nnc(C(F)F)s2)CC1` [Compound A032], in that order: 8.62 and 8.30.
For `CC(C)C(=O)N1CCN(c2cc(S(=O)(=O)NC3(CF)CC3)cc3c2n(C)c(=O)n3-c2nnc(C(F)F)s2)CC1` [Compound A033], in that order: 8.40 and 8.05.
Consider `CN(C)C(=O)N1CCN(c2cc(S(=O)(=O)NC3(C)COC3)cc3c2n(C)c(=O)n3-c2nnc(C(F)F)s2)CC1` [Compound A036], for which the pIC50 is 8.17 at PARG and 7.92 in the experiment on KURAMOCHI cells.
The like results for `CC(C)C(=O)N1CCN(c2cc(S(=O)(=O)NC3(C)COC3)cc3c2n(C)c(=O)n3-c2nnc(C(F)F)s2)CC1` [Compound A037] were, in that order, 8.17 and 7.85.
